In data set [1] the test system is Saccharomyces cerevisiae (BY4741). Description: Yeast growth inhibition assay. It counts as cell-based. The conditions noted are these: up to 50 µM, 24 h. The text has this: Each treatment was done in triplicate.
The target in another data set is ADRB2 (Homo sapiens, UniProt P07550). Description: PathHunter β-arrestin assay, antagonist mode. Format: cell-based.
The target in another data set is T1, DRD4 (Homo sapiens, UniProt P21917).
T1 sequence (P21917 1-419): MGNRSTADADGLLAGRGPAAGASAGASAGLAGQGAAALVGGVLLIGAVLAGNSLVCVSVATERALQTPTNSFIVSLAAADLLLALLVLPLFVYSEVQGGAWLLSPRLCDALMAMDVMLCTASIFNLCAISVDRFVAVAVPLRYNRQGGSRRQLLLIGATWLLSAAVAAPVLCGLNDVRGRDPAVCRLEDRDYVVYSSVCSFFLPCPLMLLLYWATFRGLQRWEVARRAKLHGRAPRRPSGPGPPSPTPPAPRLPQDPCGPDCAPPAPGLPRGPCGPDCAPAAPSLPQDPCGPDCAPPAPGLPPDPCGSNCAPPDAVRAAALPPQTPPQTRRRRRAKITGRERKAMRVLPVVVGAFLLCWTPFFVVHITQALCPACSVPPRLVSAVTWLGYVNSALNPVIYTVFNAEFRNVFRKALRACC
The data set is described as follows: PathHunter β-arrestin assay, antagonist mode. It counts as cell-based.

Another data set concerns the target ADRA2C (Homo sapiens, UniProt P18825). Description: PathHunter β-arrestin assay, antagonist mode. It counts as cell-based.
Another data set deals with DRD2L (Homo sapiens, UniProt P14416). The data set is described as follows: PathHunter β-arrestin assay, antagonist mode. It counts as cell-based.
Another data set concerns the target T2, CXCR3 (Homo sapiens, UniProt P49682).
T2 sequence (P49682 1-368): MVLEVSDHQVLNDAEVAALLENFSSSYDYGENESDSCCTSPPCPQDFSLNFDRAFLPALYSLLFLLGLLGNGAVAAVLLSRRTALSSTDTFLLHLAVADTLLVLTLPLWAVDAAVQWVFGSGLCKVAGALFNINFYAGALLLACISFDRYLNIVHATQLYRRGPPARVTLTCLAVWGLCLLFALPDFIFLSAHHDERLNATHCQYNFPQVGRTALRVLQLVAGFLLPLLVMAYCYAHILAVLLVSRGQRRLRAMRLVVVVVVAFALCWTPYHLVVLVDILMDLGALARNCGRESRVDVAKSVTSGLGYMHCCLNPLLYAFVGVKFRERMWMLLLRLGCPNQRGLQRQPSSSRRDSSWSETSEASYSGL
Description: PathHunter β-arrestin assay, positive allosteric modulation (PAM) mode. Format: cell-based. The conditions noted are these: control agonist at EC20. As for the experimental part:
Hit validation was performed by subjecting the aaptamine to an agonist, antagonist, and positive allosteric modulation (PAM) secondary screen utilizing thirteen GPCR biosensor assays (Arrestin) against the following targets: ADRA2A, ADRA2C, ADRB2, CCR1, CCR3, CXCR3, CXCR7, DRD2L, DRD2S, DRD4, HTR1E, OPRK1, and SSTR1. The assays were performed at 10-point concentrations using three-fold serial dilutions in duplicate. For all the assay formats, the final assay vehicle concentration was 1%.
For PAM assays, the cells were preincubated with the sample followed by agonist induction at the EC20 concentration. To the cells, 5 µL of 5X sample was added and incubated for 30 min at 37 °C or room temperature. Following the incubation period, 5 µL of the 6X EC20 agonist prepared in an assay buffer was added to the cells and incubated for 90 or 180 min at 37 °C or room temperature. The percent activity of aaptamine was calculated following this formula: % modulation = 100% × ((mean RLU of test sample − mean RLU of EC20 control)/(mean RLU of MAX control ligand − mean RLU of EC20 control)).

The next data set addresses OPRK1 (Homo sapiens, UniProt P41145). The data set is described as above. Format: cell-based. The conditions noted are these: dose-response, control agonist at EC20.
For another data set, the target named is SSTR1 (Homo sapiens, UniProt P30872). The data set is described as above. It counts as cell-based. The conditions noted are these: dose-response, control agonist at EC20.
The target of data set [2] is opioid receptor delta 1 (OPRD1) (Homo sapiens, UniProt P41143). Description: PathHunter β-arrestin assay, agonist mode. It counts as cell-based. The settings on record: 20 µM primary screen. The protocol:
Aaptamine (20 µM) was profiled in gpcrMAX panel biosensor assays (in agonist and antagonist modes) against a panel of 168 GPCRs. The assay was performed by DiscoverX Corporation (Fremont, CA) using PathHunter β -arrestin enzyme fragment complementation (EFC) technology, in a similar way to that described elsewhere. The PathHunter cell lines were taken from freezer stocks according to standard procedures. A total of 20 µL of cells were seeded into white 384-well plates and incubated at 37 °C for the appropriate time prior to testing.
For agonist determination, aaptamine was incubated with PathHunter cell lines to induce a response. To increase the concentration, intermediate dilution from 20 µM of aaptamine was performed to generate a 5X sample in an assay buffer. Then, 5 µL of 5X sample was added to the plate with PathHunter cells and incubated for 90 or 180 min at 37 °C or room temperature. The percentage activity of aaptamine was calculated following this formula: % activity = 100% × (mean RLU of test sample − mean RLU of vehicle control)/(mean MAX control ligand − mean RLU of vehicle control).

Data set [3] addresses mu opioid receptor (μ-OR). Set-up: method as in PMID 27744679. The conditions noted are these: read-out: EC50 agonist, mu opioid receptor; cited from earlier work.
For another data set, the system named is proteasome. Details: method as in PMID 20451377. The conditions noted are these: read-out: proteasome inhibitory activity IC50; cited from earlier work.
A further data set has as its system HeLa cells. Set-up: method as in PMID 20451377. The conditions noted are these: read-out: cytotoxicity against HeLa cells IC50; cited from earlier work.
The subject of another data set is Candida tropicalis. Details: method as in doi:10.1016/S0040-4020(03)01069-X. The conditions noted are these: antifungal; cited from earlier work.
A further data set has as its system α-adrenoreceptor. Details: method as in PMID 6150989. The conditions noted are these: vascular smooth muscle of male albino rabbits, displacement analysis; cited from earlier work.
Data set [4] concerns pdr1 Δ pdr3 Δ S. cerevisiae. The data set is described as follows: Yeast growth inhibition assay, double deletion strain. The settings on record: up to 50 µM, 24 h, PDR-attenuated strain.
Description: The yeast S. cerevisiae (BY4741) cell culture was prepared by inoculating the microorganism in a 250 mL Erlenmeyer flask containing 50 mL YPD + HEPES medium, followed by incubation at 30 °C for 24–48 h. The assay was performed in a 96-well format. Each well except for the blank contained 100 μL of cell suspension with a final cell density of 5 × 10^4 cells/mL. […] The absorbance was read after a 24 h incubation. […] Nystatin was used as the positive control and DMSO served as the negative control. Each treatment was done in triplicate.
Setting [5] is: dose-response analysis, read-out: Dose-Response Maximal Response, % Inhibition.

In brackets after ≈: the same amount, converted by molar mass. Entries after “also recorded” stand apart in the source; their conditions may differ. A value given as a limit tells only on which side of the number the result lay.

The text below walks through data of PMC8466755, “GPCR Pharmacological Profiling of Aaptamine from the Philippine Sponge Stylissa sp. Extends Its Therapeutic Potential for Noncommunicable Diseases” (Molecules, 2021).

Sequence of ADRB2 (P07550 whole entry): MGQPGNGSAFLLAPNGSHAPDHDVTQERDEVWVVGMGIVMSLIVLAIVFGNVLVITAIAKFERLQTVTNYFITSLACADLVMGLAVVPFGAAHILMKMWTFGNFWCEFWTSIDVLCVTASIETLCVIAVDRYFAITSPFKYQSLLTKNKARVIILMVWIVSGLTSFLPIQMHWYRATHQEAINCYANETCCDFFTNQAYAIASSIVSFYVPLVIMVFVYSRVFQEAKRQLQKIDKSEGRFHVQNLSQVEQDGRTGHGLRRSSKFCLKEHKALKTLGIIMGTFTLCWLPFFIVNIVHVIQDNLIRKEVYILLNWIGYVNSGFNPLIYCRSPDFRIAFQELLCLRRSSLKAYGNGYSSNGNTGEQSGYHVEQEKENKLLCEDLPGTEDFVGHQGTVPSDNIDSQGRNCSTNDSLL
Sequence of DRD2L (P14416 whole entry): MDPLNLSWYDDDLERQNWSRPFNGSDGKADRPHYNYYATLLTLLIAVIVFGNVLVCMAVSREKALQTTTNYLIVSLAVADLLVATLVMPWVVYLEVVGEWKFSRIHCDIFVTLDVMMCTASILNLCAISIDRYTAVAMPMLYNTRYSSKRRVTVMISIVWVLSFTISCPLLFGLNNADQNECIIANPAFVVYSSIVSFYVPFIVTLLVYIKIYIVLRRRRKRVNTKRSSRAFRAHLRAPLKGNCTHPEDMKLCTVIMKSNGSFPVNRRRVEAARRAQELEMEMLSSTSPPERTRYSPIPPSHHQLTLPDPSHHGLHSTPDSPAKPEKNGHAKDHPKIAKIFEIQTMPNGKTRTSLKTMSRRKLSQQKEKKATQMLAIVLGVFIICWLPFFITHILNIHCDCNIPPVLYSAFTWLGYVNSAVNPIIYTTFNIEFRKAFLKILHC
Sequence of SSTR1 (P30872 whole entry): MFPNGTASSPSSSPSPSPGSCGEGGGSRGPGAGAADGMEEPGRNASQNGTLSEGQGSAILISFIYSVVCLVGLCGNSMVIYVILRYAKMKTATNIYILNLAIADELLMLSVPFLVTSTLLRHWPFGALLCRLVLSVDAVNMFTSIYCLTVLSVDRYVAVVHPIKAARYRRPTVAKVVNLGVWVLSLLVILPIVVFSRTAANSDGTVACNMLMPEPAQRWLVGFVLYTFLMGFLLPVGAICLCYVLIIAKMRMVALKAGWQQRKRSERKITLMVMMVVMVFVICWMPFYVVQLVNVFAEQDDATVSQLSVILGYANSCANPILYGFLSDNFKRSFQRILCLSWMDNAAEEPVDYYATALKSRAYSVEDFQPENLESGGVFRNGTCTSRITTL
Sequence of ADRA2C (P18825 whole entry): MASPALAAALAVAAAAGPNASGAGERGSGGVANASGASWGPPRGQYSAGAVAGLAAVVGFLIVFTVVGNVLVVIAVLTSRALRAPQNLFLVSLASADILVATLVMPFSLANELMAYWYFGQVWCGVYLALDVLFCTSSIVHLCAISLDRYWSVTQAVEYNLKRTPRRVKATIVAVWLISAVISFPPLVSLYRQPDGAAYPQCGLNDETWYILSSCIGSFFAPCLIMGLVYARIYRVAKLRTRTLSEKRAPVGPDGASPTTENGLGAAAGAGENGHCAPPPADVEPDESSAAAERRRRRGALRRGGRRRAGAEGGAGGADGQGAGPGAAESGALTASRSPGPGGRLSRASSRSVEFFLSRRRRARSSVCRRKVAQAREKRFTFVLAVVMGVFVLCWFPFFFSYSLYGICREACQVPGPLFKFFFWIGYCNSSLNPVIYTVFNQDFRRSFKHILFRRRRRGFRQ
Sequence of OPRK1 (P41145 whole entry): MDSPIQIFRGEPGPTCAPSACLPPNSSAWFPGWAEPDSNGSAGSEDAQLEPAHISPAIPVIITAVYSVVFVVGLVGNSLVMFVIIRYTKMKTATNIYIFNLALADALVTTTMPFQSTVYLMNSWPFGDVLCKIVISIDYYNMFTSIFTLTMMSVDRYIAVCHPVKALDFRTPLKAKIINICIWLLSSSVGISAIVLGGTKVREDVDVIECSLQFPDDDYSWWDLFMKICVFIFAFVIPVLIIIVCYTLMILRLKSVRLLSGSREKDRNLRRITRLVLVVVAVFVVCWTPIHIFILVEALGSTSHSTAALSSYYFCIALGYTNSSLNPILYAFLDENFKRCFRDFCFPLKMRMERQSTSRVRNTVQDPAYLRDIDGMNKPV
Sequence of opioid receptor delta 1 (OPRD1) (P41143 whole entry, the tested form may be a part): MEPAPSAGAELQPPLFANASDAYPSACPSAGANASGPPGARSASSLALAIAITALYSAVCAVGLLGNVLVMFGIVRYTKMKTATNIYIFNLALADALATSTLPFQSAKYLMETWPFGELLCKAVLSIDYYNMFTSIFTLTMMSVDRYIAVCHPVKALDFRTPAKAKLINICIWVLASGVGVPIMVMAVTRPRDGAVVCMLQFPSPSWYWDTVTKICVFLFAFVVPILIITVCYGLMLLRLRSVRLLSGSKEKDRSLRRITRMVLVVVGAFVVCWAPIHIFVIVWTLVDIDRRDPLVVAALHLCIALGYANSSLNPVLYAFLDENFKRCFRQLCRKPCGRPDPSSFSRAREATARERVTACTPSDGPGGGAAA
Description for ADRA2C: (§1) The assay was performed by DiscoverX Corporation (Fremont, CA) using PathHunter β -arrestin enzyme fragment complementation (EFC) technology, in a similar way to that described elsewhere [35, 36]. The PathHunter cell lines were taken from freezer stocks according to standard procedures. A total of 20 µL of cells were seeded into white 384-well plates and incubated at 37 °C for the appropriate time prior to testing.
(§2) In this assay format, the standard agonist was added at an EC80 concentration. To the plate that contained the cells, 5 µL of the 5X sample was added and incubated for 30 min at 37 °C or room temperature. After the incubation period, 5 µL of the 6X EC80 agonist in an assay buffer was added to the cells and incubated for additional 90 or 180 min at 37 °C or room temperature.
Description for ADRB2: as §1, §2
Description for DRD2L: as §1, §2
Description for DRD4: as §1, §2

In general, IC50 refers to the concentration that inhibits the measured activity by half. For orientation: EC50 means the concentration needed to bring the measured effect to its halfway point. What is called MIC is the lowest concentration found to suppress growth. For the compound `COc1cc2ccnc3c2c(c1OC)NC=C3` [aaptamine], the results for the growth inhibitory activity entry in [1] and in data set [4] were “did not observe growth inhibitory activity” and “inactive”, respectively. Further, the Emax on ADRB2 (setting [5]) was found to be 96.5%; on DRD4 (setting [5]), 94.5%; on ADRA2C (setting [5]), 104%; on DRD2L (setting [5]), 73.7%; at CXCR3 (PAM mode, read-out: Dose-Response Maximal Response, % Activation), 74.6%. Moreover, the IC50 on ADRB2 (dose-response, antagonist mode) was 0.2 µM; against DRD4 (dose-response, antagonist mode), 6.9 µM; against ADRA2C (dose-response, antagonist mode), 11.9 µM; against DRD2L (dose-response, antagonist mode), 38.7 µM; in the data set with proteasome, 19 µM; with HeLa cells it was 66 µM. In addition, the “selectivity for ADRB2 over ADRA2C” value on ADRB2 (from IC50 values) is reported as above 50 fold. Moreover, the “selectivity for DRD4 among the dopamine receptors” value at DRD4 (versus DRD2S and DRD2L, from IC50 values) is on record as 3.7- to 5.6 fold. Further, the EC50 on CXCR3 (dose-response, read-out: EC50 (PAM)) is 31.8 µM; in [3], 10.1 µM. The “validation of potentiator hit under PAM conditions” value at OPRK1 and at SSTR1 was “false positives; also recorded: did not validate” in each case. Further, in data set [2], the “agonistic activity in the β-arrestin assay” value is reported as “did not demonstrate significant agonistic activity”. Further, the MIC with Candida tropicalis was 110 µM (≈ 25.1 µg/mL). For the same compound, in the data set with α-adrenoreceptor, the “effective concentration, α-adrenoreceptor antagonism” value was 30 µM.
